Data on 1 compound can be found in US20210085801A1, “A[…] COPOLYMERS, […], AND METHODS FOR TREATING OR […] FAILURE” (CARDIOL THERAPEUTICS INC., priority 2017, published 2021).

Data set [1] is described as follows: In vitro release study (dialysis bag, 4% BSA). Type of data set: physicochemical. The note with it: dialysis bag in 300 mL 4% BSA, 37° C. The method, then:
An in vitro release study was performed to determine the in vitro release characteristic of free CBD and the above micelle encapsulated CBD formulations (Micellar CBD (DP 23) and d Micellar CBD (DP 15)).
Each of three formulations shown in Table 4 having equal concentrations of CBD were placed in separate Spectra/Por dialysis bags (molecular weight cut-off=12,000-14,000 g mol-1). The dialysis bags were sealed with clips and placed in a beaker with 300 mL 4% bovine serum albumin (BSA), then in a 37° C. shaker. At time 0 and 24 hours, the volume within each bag was measured, and a sample of each solution was taken from inside the dialysis bag and quantified by HPLC. The protocol that was used is described in Aliabadi et al, Journal of Controlled Release (2005) 104 (2), 301-311, which protocol is incorporated herein by reference.

Data set [2] can be described thus: Pharmacokinetic animal study, subcutaneous injection. The note with it: SC, single dose 10 mg/kg, rats, plasma CBD.
Description: Cannulated adult male Sprague-Dawley rats were used for the pharmacokinetic experiments.
Rats were divided into 2 groups (n=4/group). Groups 1 and 2 received CBD either encapsulated in PEO-PBCL23 (referred to herein as Micellar CBD (DP 23)) or in free form (CBD dissolved in polyethylene glycol 400 (also referred to as PEG 400)). The administration was by way of subcutaneous injection in the right flank. A single dose of 10 mg/kg was administered to the rats of all groups.
Serial blood samples (200 μL) were collected using jugular vein catheters prior to CBD administration and at 0.25, 0.5, 0.75, 1, 2, 4, 6, 12 and 24, 48 and 72 hours post CBD administration. Plasma was separated (by using a centrifuge) from the samples and kept at −20° C. until it was analyzed for drug content.
100 μL of plasma samples were analyzed for CBD content as follows. The samples were spiked with internal standard (CBD d3 1 μg/mL) and 400 μL of cold acetonitrile was added to each sample. The mixture was vortexed for 1 minute and then 400 μL of water was added and the resulting mixture was further vortexed for 1 minute. Then 4 mL n-Hexane was added and the resulting mixture further vortexed for 5 minutes. The samples were centrifuged at 1160×g for 15 minutes and the organic phase layers were separated and transferred to clean tubes and evaporated to dryness. The residue was then analyzed for CBD content using a liquid chromatography-mass spectrometry (LC-MS) method involving the use of a Waters Quattro Micro triple quadrupole mass spectrometer. The residue samples were ran in MRM mode using the 315 to 193 transition for CBD, 318 to 196 for Cannabidiol-D3 solution and 311 to 223 for Cannabinol (CBN). A C18 Agilent Poroshell 120 EC column (2.1×50 mm; 2.7 μm particles) was used. The mobile phase consisted of 0.1% formic acid in HPLC-grade water (Solution A) and 0.1% formic acid in HPLC-grade acetonitrile (Solution B). A gradient elution was programmed to co33mmence with 40% Solution B for post-injection followed by gradual increase in 3 min. of Solution B to 95%. […] The flow rate was 0.3 mL/min. and 2 μL was injected. The lowest limit of quantification was set at 10 ng/mL.
The total amount of CBD that entered the bloodstream (AUC0-t; 72 h) was calculated using the trapezoidal rule from 0 to the last measured plasma concentration (Clast). The terminal elimination rate constant (β) was estimated using the linear least square regression of the log-linear phase of the concentration-time. Cmax and Tmax were the highest observed concentration and corresponding sampling time point.

For `C=C(C)[C@@H]1CCC(C)=C[C@H]1c1c(O)cc(CCCCC)cc1O` [Free-CBD, Cannabidiol], the “% CBD released after 24 hours” value in data set [1] is recorded as “rapid release”. Moreover, the “% CBD released after 24 hours” value in data set [1] (listed as Free-CBD dissolved in acetonitrile) worked out at 70.65%. In data set [2], the AUC0-6 was found to be 209.45 ± 210.52 ng·h/mL, the AUC0-72 h was 687.12 ± 217.39 ng·h/mL, the Cmax is 94 ± 86.27 ng/mL and the tmax is 9 ± 10.13 h.

The Cmax is the peak of the concentration-time curve.
